This is an account of results in patent US20120322102A1, “GENETICALLY ENGINEERED HERBICIDE RESISTANT ALGAE” (SAPPHIRE ENERGY, INC., priority 2008, published 2012).

Read-outs that look alike come from different tables or passages of the source.

Assay [1] deals with Wildtype Chlamydomonas reinhardtii. The conditions noted are these: cited from earlier work; for Complete Growth inhibition: concentration at which growth is inhibited; for IC50: Vartak and Sujata 1997/1999, read-out: I50.
For assay [2], the system named is Resistant Chlamydomonas reinhardtii. The conditions noted are these: cited from earlier work; for Highest tolerated concentration: highest concentration an isolated resistant strain can tolerate; for IC50: Vartak and Sujata 1997/1999, read-out: I50.
Assay [3] deals with atpA-EPSPS (G163A/A252T) engineered C. reinhardtii strain. In words: Growth on HSM plates with increasing amounts of glyphosate. It is filed as cell-based, Chlamydomonas reinhardtii. The conditions noted are these: 0-2 mM glyphosate, chloroplast atpA-EPSPS (G163A/A252T) strain. Here is the method:
(§1) To characterize the effect of expressing the double mutated C. reinhardtii EPSPS directly in the chloroplast, engineered strains, along with wild type C. reinhardtii cc 1690 (mt+), were plated on HSM plates with increasing amounts of glyphosate (0-2 mM). Wild type C. reinhardtii cc1690 was sensitive to approximately 1 mM glyphosate whereas the psbD-EPSPS (G163A/A252T) and atpA-EPSPS (G163A/A252T) engineered strains were sensitive at approximately 1.8 and 1.6 mM glyphosate, respectively.

For assay [4], the system named is psbD-EPSPS (G163A/A252T) engineered C. reinhardtii strain. Described as above. It is filed as cell-based, Chlamydomonas reinhardtii. The conditions noted are these: 0-2 mM glyphosate, chloroplast psbD-EPSPS (G163A/A252T) strain. Here is the method:
as §1

For assay [5], the system named is wild type C. reinhardtii cc1690 (mt+). The description is as above. The format is cell-based, Chlamydomonas reinhardtii. The conditions noted are these: 0-2 mM glyphosate. Here is the method: as §1
Assay [6] concerns Wildtype Chlamydomonas reinhardtii. In words: Herbicide concentration at which growth of wild type algae is inhibited (chart). It is filed as cell-based. The conditions noted are these: unpublished results. An excerpt:
(§2) Provided below is an exemplary chart of herbicide concentrations that can be used in the embodiments disclosed herein. The concentrations provided are the concentration that growth of the wild type algae is inhibited at, and the highest concentrations that an isolated resistant strain of Chlamydomonas reinhardtii can tolerate. One of skill in the art would be able to determine the proper concentration of the herbicides listed in the chart without undue experimentation.

The test system of assay [7] is Resistant Chlamydomonas reinhardtii. In words: Highest herbicide concentration an isolated resistant strain can tolerate (chart). The format is cell-based. The conditions noted are these: unpublished results.
Excerpt: as §2

For the compound `CCNc1nc(Cl)nc(NC(C)C)n1` [Atrazine], in assay [1] (Galloway and Mets 1984), the “Complete Growth inhibition” value was 5 µM. The Highest tolerated concentration in assay [2] (Galloway and Mets 1984) is 100 µM.
With `CCC(C)n1c(=O)[nH]c(C)c(Br)c1=O` (stereo not shown) [Bromacil], in assay [1] (Galloway and Mets 1984), the “Complete Growth inhibition” value was 2 µM. Further, the Highest tolerated concentration in assay [2] (Galloway and Mets 1984) was 50 µM.
In the case of `COc1nc(C)nc(NC(=O)NS(=O)(=O)c2ccccc2Cl)n1` [Chlorsulfuron], the “Complete Growth inhibition” value in assay [1] (Winder and Spalding 1988) was 100 µM. In addition, the Highest tolerated concentration in assay [2] (Winder and Spalding 1988) was 1000 µM.
For the compound `CN(C)C(=O)Nc1ccc(Cl)c(Cl)c1` [DCMU, 3-(3,4-dichlorophenyl)-1,1-dimethylurea], the “Complete Growth inhibition” value in assay [1] (Galloway and Mets 1984) was 2 µM. Moreover, the Highest tolerated concentration in assay [2] (Galloway and Mets 1984) was 200 µM.
Regarding `O=C(O)CNCP(=O)(O)O` [Glyphosate], the “glyphosate concentration the strain was sensitive to” value is listed as approximately 1.6 mM in assay [3], “approximately 1.8 mM” in assay [4] and “approximately 1 mM” in assay [5]. For the same compound, the “Complete Growth inhibition” value in assay [6] was 1 mM; in assay [7], 5 mM.
As to `CC(C)C1(C)N=C(c2nc3ccccc3cc2C(=O)O)NC1=O` (stereo not shown) [Imazaquin], the “Complete Growth inhibition” value in assay [1] (Winder and Spalding 1988) was 1000 µM. Further, in assay [2] (Winder and Spalding 1988), the Highest tolerated concentration is 10000 µM.
Consider `CNc1cnn(-c2cccc(C(F)(F)F)c2)c(=O)c1Cl` [Norflurazon], for which the results for the IC50 in assay [1] and in assay [2] were 1100 nM and 3600 nM, respectively.
As for `C[n+]1ccc(-c2cc[n+](C)cc2)cc1` [Paraquat], the IC50 in assay [1] is 700 nM; in assay [2] it was 54000 nM.
